“And” between values parts separate entries of the source, which are not always exact repeats. Equal values may be shown once. Read-outs that look alike come from different tables or passages of the source.

For series [1] the following is noted: for decomp (%) of Pc 4: Pc 4 in toluene ~9 μM, white light 1.2 kJ/s/m^2. How it is done: (§1) The beam intensity was checked before each measurement.
(§2) Solutions for the photodecomposition experiments were prepared as follows.

Series [2] is described as follows: Qualitative solubility in organic solvents.
Series [3] is described as follows: Photodecomposition of phthalocyanines in toluene under white light, no added radical source. Conditions: toluene ~9 μM, no added alkene, white light 1.2 kJ/s/m^2.
Description: The distance between the cuvette face and the lamp filament was 30 cm. Determination of the beam intensity at the cuvette face was made with a powermeter (Powermax, pm10, Coherent, Santa Clara, Calif.). The beam intensity was checked before each measurement.
Solutions for the photodecomposition experiments were prepared as follows. […] This assumption was justified on the basis that all of the silicon phthalocyanines studied contained simple, unsubstituted phthalocyanine rings. The extinction coefficients of the aluminum phthalocyanines were assumed to be 2.3×10^5, the extinction coefficient of AlPcOSi(CH3)2(CH2)3N(CH3)2, Pc 1.
The absorbance of the Q band of the solution, A, was determined with a spectrophotometer (Lambda 25, Perkin Elmer, Shelton, Conn.; fused silica cuvettes, 1.00 cm, 3.5 mL, Fisher Scientific). From A, ε, the cuvette path length, b, and Beer's law, the concentration of the solution, c, was determined. The solution was then diluted with toluene to a concentration of 9.2 μM. To verify that this was the concentration of the solution, its absorbance was measured again.
In a typical determination, the solution (3.00 mL) was placed in a cuvette (1.00 cm, 3.5 mL, Fisher Scientific, Pittsburgh, Pa.) and its absorbance was measured with the spectrometer (Lambda 25) before irradiation and at 2, 4, 6 and 8 h.
where A0 is the absorbance of the solution at time 0, and At is the absorbance at time t.
A short description of series [4]: Photodecomposition of Al and Si phthalocyanines in toluene in the presence of squalene under white light. The class given is physicochemical. Conditions: toluene ~9 μM, squalene 1:1000 mole ratio, white light 1.2 kJ/s/m^2, air. The procedure:
as §1, §2

Where [5] appears, read: time 0 h, alkene 1:100 mole ratio.
The mark [6] stands for this setting: time 0 h, alkene 1:1000 mole ratio.
Setting [7] is: time 2 h, alkene 1:100 mole ratio.
Setting [8] is: time 2 h, alkene 1:1000 mole ratio.
The mark [9] stands for this setting: time 4 h, alkene 1:100 mole ratio.
Setting [10] is: time 4 h, alkene 1:1000 mole ratio.
The mark [11] stands for this setting: time 6 h, alkene 1:100 mole ratio.
Where [12] appears, read: time 6 h, alkene 1:1000 mole ratio.
[13] abbreviates: time 8 h, alkene 1:100 mole ratio.
Where [14] appears, read: time 8 h, alkene 1:1000 mole ratio.
[15] abbreviates: time 2 h, radiation 86 kJ/mol × 10^−6.
[16] abbreviates: time 4 h, radiation 172 kJ/mol × 10^−6.
Where [17] appears, read: time 6 h, radiation 258 kJ/mol × 10^−6.
[18] abbreviates: time 8 h, radiation 344 kJ/mol × 10^−6.

On to `CC(C)=CCC/C(C)=C/CC/C(C)=C/CO` [farnesol], for which the “effectiveness of alkene in decreasing photostability of Pc 4 (in words)” value in series [1] is “most effective”. The “decomp (%) of Pc 4” value in series [1] (setting [5]) was 0%; in series [1] (setting [6]) it was 0%; in series [1] (setting [7]) it was 13%; in series [1] (setting [8]), 79%; in series [1] (setting [9]), 20%; in series [1] (setting [10]) it was 93%. In addition, the “decomp (%) of Pc 4” value in series [1] (setting [11]) was 38%; in series [1] (setting [12]), 99%; in series [1] (setting [13]), 50%; in series [1] (setting [14]) it was 99%.

For the compound `CC/C=C\C/C=C\C/C=C\CCCCCCCC(=O)O.CC/C=C\C/C=C\C/C=C\CCCCCCCC(=O)O.CN(C)CCC[Si](C)(C)O[Si]1(O[Si](C)(C)CCCN(C)C)n2c3c4ccccc4c2N=C2N=C(N=c4c5ccccc5c(n41)=NC1=NC(=N3)c3ccccc31)c1ccccc12` [Pc 290, SiPc[OSi(CH3)2(CH2)3NH(CH3)2]2^2+ [OC(O)(CH2)6(CH2CH═CH)3CH2CH3]2], the “solubility (in words)” value in series [2] was “soluble in ethanol, CH2Cl2 and dimethylformamide, moderately soluble in toluene, and insoluble in hexanes”.

With “SiPc[OC(O)(CH2)2(CH2CH═CH)4(CH2)4CH3]2 [Pc 299]”, the “solubility (in words)” value in series [2] was “soluble in CH2Cl2, dimethylformamide, pyridine and toluene, slightly soluble in hexanes, and insoluble in methanol”. Besides, the “decomp (%)” value was 0% in series [3] (time 0 h); 7% and 12% in series [3] (setting [15]); 12% and 21% in series [3] (setting [16]); 14% and 27% in series [3] (setting [17]); 17% and 33% in series [3] (setting [18]).

In the case of `CC(C)CCCC(C)CCCC(C)CCOc1cc2c(cc1OCCC(C)CCCC(C)CCCC(C)C)-c1nc-2nc2[nH]c(nc3nc(nc4[nH]c(n1)c1ccccc41)-c1ccccc1-3)c1ccccc21` (stereo not shown) [Pc 272, H2Pc[2,3-O(C2H4CH(CH3)CH2)2C2H4CH(CH3)2]2], the “solubility (in words)” value in series [2] is “soluble in CH2Cl2 and toluene, and slightly soluble in dimethylformamide and hexanes”.

For the compound `CCCCCCCC/C=C\CCCCCCCC(=O)O[Si]1(OC(=O)CCCCCCC/C=C\CCCCCCCC)n2c3c4ccccc4c2N=C2N=C(N=c4c5ccccc5c(n41)=NC1=NC(=N3)c3ccccc31)c1ccccc12` [Pc 295, SiPc[OC(O)(CH2)7CH═CH(CH2)7CH3]2], in series [2], the “solubility (in words)” value was “soluble in CH2Cl2, dimethylformamide, pyridine and toluene, slightly soluble in hexanes, and insoluble in methanol”. Besides, the “decomp (%)” value in series [3] (time 0 h) was 0%; in series [3] (setting [15]), 2%; in series [3] (setting [16]), 3%; in series [3] (setting [17]) it was 3%; in series [3] (setting [18]) it was 4%.

For the compound “CoPc[2,3-O(C2H4CH(CH3)CH2)2C2H4CH(CH3)2]2 [Pc 273]”, the “solubility (in words)” value in series [2] was “slightly soluble in CH2Cl2, dimethylformamide, toluene, and hexanes”.

As to `CCCCC/C=C\C/C=C\C/C=C\C/C=C\CCCC(=O)O.CCCCC/C=C\C/C=C\C/C=C\C/C=C\CCCC(=O)O.CN(C)CCC[Si](C)(C)O[Si]1(O[Si](C)(C)CCCN(C)C)n2c3c4ccccc4c2N=C2N=C(N=c4c5ccccc5c(n41)=NC1=NC(=N3)c3ccccc31)c1ccccc12` [Pc 291, SiPc[OSi(CH3)2(CH2)3NH(CH3)2]2^2+ [OC(O)(CH2)2(CH2CH═CH)4(CH2)4CH3]2], the “solubility (in words)” value in series [2] is “soluble in ethanol, CH2Cl2 and dimethylformamide, moderately soluble in toluene, and insoluble in hexanes”. In addition, the “decomp (%)” value in series [3] (time 0 h) was 0%; in series [3] (setting [15]), 18%; in series [3] (setting [16]), 19%; in series [3] (setting [17]), 20%; in series [3] (setting [18]), 20%.

For `CC(C)=CCC/C(C)=C/CC/C(C)=C/CC/C=C(\C)CC/C=C(\C)CCC=C(C)C` [squalene], the “decomp (%) of Pc 4” value in series [1] (setting [5]) is recorded as 0%; in series [1] (setting [6]) it was 0%; in series [1] (setting [7]), 50%; in series [1] (setting [8]) it was 57%; in series [1] (setting [9]) it was 75%; in series [1] (setting [10]), 81%. Further, the “decomp (%) of Pc 4” value worked out at 87% in series [1] (setting [11]), 92% in series [1] (setting [12]), 94% in series [1] (setting [13]) and 96% in series [1] (setting [14]).

Turning to HOSiPcOSi(CH3)2(CH2)3N(C2H5)2 [Pc 34], the “solubility (in words)” value in series [2] was “soluble in CH2Cl2, dimethylformamide, and toluene, and insoluble in hexanes”.

On to `CCCCC/C=C\C/C=C\CCCCCCCC(=O)O` [linoleic acid], for which the “decomp (%) of Pc 4” value in series [1] (setting [6]) is given as 0%; in series [1] (setting [8]), 40%; in series [1] (setting [10]) it was 72%; in series [1] (setting [12]), 89%; in series [1] (setting [14]), 99%.

Regarding “SiNc[OSi(CH3)2(CH2)3N(CH3)2]2 [Compound 41]”, in series [2], the “solubility (in words)” value is “soluble in CH2Cl2, dimethylformamide, and toluene, and insoluble in hexanes”.

On to `CC(C)=CCC/C(C)=C/CO` [geraniol], for which the “effectiveness of alkene in decreasing photostability of Pc 4 (in words)” value in series [1] is on record as “most effective”. Further, the “decomp (%) of Pc 4” value is 0% in series [1] (setting [5]); 0% in series [1] (setting [6]); 10% in series [1] (setting [7]); 87% in series [1] (setting [8]); 14% in series [1] (setting [9]); 98% in series [1] (setting [10]). Also, the “decomp (%) of Pc 4” value came to 21% in series [1] (setting [11]), 99% in series [1] (setting [12]), 30% in series [1] (setting [13]) and 99% in series [1] (setting [14]).

In the case of `C1=C\CC/C=C\CC/1` [1,5-cyclooctadiene], the “decomp (%) of Pc 4” value in series [1] (setting [6]) is recorded as 0%; in series [1] (setting [8]), 23%; in series [1] (setting [10]), 49%; in series [1] (setting [12]), 69%; in series [1] (setting [14]) it was 83%.

“ZnPc[2,3-O(C2H4CH(CH3)CH2)2C2H4CH(CH3)2]2 [Pc 275]”: the “solubility (in words)” value in series [2] is “slightly soluble in CH2Cl2, dimethylformamide, toluene, and hexanes”.

For “NiPc[2,3-O(C2H4CH(CH3)CH2)2C2H4CH(CH3)2]2 [Pc 274]”, the “solubility (in words)” value in series [2] was “slightly soluble in CH2Cl2, dimethylformamide, toluene, and hexanes”.

Regarding `CCCCCCCC[Si](CCCCCCCC)(CCCCCCCC)O[Si]1(O[Si](CCCCCCCC)(CCCCCCCC)CCCCCCCC)n2c3c4ccccc4c2N=C2N=C(N=c4c5ccccc5c(n41)=NC1=NC(=N3)c3ccccc31)c1ccccc12` [Pc 308, SiPc(OSiOct3)2], the “decomp (%)” value stood at 0% in series [4] (time 0 h); 10% in series [4] (setting [15]); 15% in series [4] (setting [16]); 21% in series [4] (setting [17]); 26% in series [4] (setting [18]).

As for `CC1=C(/C=C/C(C)=C/C=C/C(C)=C/C(=O)O)C(C)(C)CCC1.CC1=C(/C=C/C(C)=C/C=C/C(C)=C/C(=O)O)C(C)(C)CCC1.CN(C)CCC[Si](C)(C)O[Si]1(O[Si](C)(C)CCCN(C)C)n2c3c4ccccc4c2N=C2N=C(N=c4c5ccccc5c(n41)=NC1=NC(=N3)c3ccccc31)c1ccccc12` [Pc 293, SiPc[OSi(CH3)2(CH2)3NH(CH3)2]2^2+ [OC(O)(CH═C(CH3)CH═CH)2C6H6(CH3)3]2], the “solubility (in words)” value in series [2] is “soluble in ethanol, CH2Cl2 and dimethylformamide, moderately soluble in toluene, and insoluble in hexanes”.

For the compound `CN(C)CCC[Si](C)(C)O[Si]1(O)n2c3c4ccccc4c2N=C2N=C(N=c4c5ccccc5c(n41)=NC1=NC(=N3)c3ccccc31)c1ccccc12` (stereo not shown) [Pc 4, HOSiPcOSi(CH3)2(CH2)3N(CH3)2], the “decomp (%)” value in series [4] (time 0 h) came to 0%; in series [4] (setting [15]), 57%; in series [4] (setting [16]), 81%; in series [4] (setting [17]), 92%; in series [4] (setting [18]), 96%; in series [3] (time 0 h) it was 0%. The “decomp (%)” value in series [3] (setting [15]) came to 11%; in series [3] (setting [16]) it was 12%; in series [3] (setting [17]), 12%; in series [3] (setting [18]) it was 13%.

As for `C[Si](C)(C)O[Si]1(O[Si](C)(C)C)n2c3c4ccccc4c2N=C2N=C(N=c4c5ccccc5c(n41)=NC1=NC(=N3)c3ccccc31)c1ccccc12` [Pc 280, SiPc(OSiMe3)2], the “decomp (%)” value is recorded as 0% in series [4] (time 0 h); 11% in series [4] (setting [15]); 19% in series [4] (setting [16]); 27% in series [4] (setting [17]); 36% in series [4] (setting [18]).

These data come from patent publication US20120323164A1, “PHOTODYNAMIC THERAPY WITH PHTHALOCYANINES AND RADICAL SOURCES” (Case Western Reserve University, priority 2011, published 2012).
